This is an account of results in US20240217978A1 (CHONG KUN DANG PHARMACEUTICAL CORP., priority 2021, published 2024).

Usually pIC50 stands for the IC50 on a negative log10 scale, so that one unit is a factor of ten.

pIC50: −log10 of the molar value.

The target in the experiment is human adenosine A2a receptor (Homo sapiens (Human), UniProt P29274). Nature of the experiment: A2a receptor binding affinity, [3H]-NECA radioligand binding test. The conditions noted are these: [3H]-NECA 37 nM; membrane from HEK-293 cells transfected with human adenosine A2a receptor. A digest of the protocol: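 Membranes from HEK-293 cells expressing human A2a receptor were incubated with [3H]-NECA (final 37 nM) and compound for 1 h at room temperature in 50 mM Tris, 10 mM MgCl2, 1 mM EDTA, pH 7.4. Bound ligand was filtered on PEI-coated plates and counted by scintillation to derive IC50 (μM).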
human adenosine A2a receptor, sequence (P29274 whole entry): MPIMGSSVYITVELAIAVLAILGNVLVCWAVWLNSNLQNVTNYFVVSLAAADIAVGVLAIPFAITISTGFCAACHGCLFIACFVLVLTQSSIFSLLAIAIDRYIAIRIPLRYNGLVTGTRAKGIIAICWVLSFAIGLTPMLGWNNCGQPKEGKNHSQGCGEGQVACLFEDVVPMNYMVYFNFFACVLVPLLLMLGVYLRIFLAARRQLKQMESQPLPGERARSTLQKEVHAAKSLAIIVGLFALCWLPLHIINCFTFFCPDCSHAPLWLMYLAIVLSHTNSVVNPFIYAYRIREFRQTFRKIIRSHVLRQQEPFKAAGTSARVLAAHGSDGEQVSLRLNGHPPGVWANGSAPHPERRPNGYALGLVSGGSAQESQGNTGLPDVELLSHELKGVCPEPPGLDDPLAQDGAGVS
`Nc1nc(N2CC[C@H]2C(=O)N2CCN(c3ncccn3)CC2)nc2nc(-c3ccco3)nn12` [Example 242, (S)-(1-(7-amino-2-(furan-2-yl)-[1,2,4]triazolo[1,5-a][1,3,5]triazin-5-yl)azetidin-2-yl)(4-(pyrimidin-2-yl)piperazin-1-yl)methanone] gave a pIC50 of 8.05.

Consider `CCCCN1CCN(C(=O)[C@@H]2CCCN2c2nc(N)c3nc(-c4ccc(C)o4)sc3n2)CC1` [Example 243, (S)-(1-(7-amino-2-(5-methylfuran-2-yl)thiazolo[5,4-d]pyrimidin-5-yl)pyrrolidin-2-yl)(4-butylpiperazin-1-yl)methanone], for which the pIC50 is 7.85.

Compound `CC(C)(O)CN1CCC(C2CCN(C(=O)[C@@H]3CCCN3c3nc(N)n4nc(-c5ccco5)nc4n3)CC2)CC1` [Example 244, (S)-(1-(7-amino-2-(furan-2-yl)-[1,2,4]triazolo[1,5-a][1,3,5]triazin-5-yl)pyrrolidin-2-yl)(1′-(2-hydroxy-2-methylpropyl)-[4,4′-bipiperidin]-1-yl)methanone] had a pIC50 of 8.40.

`CC(C)(F)CN1CCC(C2CCN(C(=O)[C@@H]3CCCN3c3nc(N)n4nc(-c5ccco5)nc4n3)CC2)CC1` [Example 245, (S)-(1-(7-amino-2-(furan-2-yl)-[1,2,4]triazolo[1,5-a][1,3,5]triazin-5-yl)pyrrolidin-2-yl)(1′-(2-fluoro-2-methylpropyl)-[4,4′-bipiperidin]-1-yl)methanone]: the pIC50 is 7.82.

Compound `COCCN1CCN(C(=O)[C@@H]2CCCN2c2nc(N)n3nc(-c4ccco4)nc3n2)CC1=O` [Example 246, 4-((7-amino-2-(furan-2-yl)-[1,2,4]triazolo[1,5-a][1,3,5]triazin-5-yl)-L-prolyl)-1-(2-methoxyethyl)piperazin-2-one] showed a pIC50 of 8.52.

The compound `CCCCN1CCN(C(=O)[C@@H]2CCCN2c2nc(N)n3nc(-c4ccco4)nc3n2)CC1=O` [Example 247, 4-((7-amino-2-(furan-2-yl)-[1,2,4]triazolo[1,5-a][1,3,5]triazin-5-yl)-L-prolyl)-1-butylpiperazin-2-one] gave a pIC50 of 8.70. The pIC50 values of the last two compounds are within 0.2 log units of each other.

With `CC[C@H](Nc1nc(N)n2nc(-c3ccco3)nc2n1)C(=O)N1CCN(c2nccs2)CC1` [Example 248, (S)-2-((7-amino-2-(furan-2-yl)-[1,2,4]triazolo[1,5-a][1,3,5]triazin-5-yl)amino)-1-(4-(thiazol-2-yl)piperazin-1-yl)butan-1-one], the pIC50 is 7.89.

`Nc1nc(N[C@H](C(=O)N2CCN(c3nccs3)CC2)C2CCOCC2)nc2nc(-c3ccco3)nn12` [Example 249, (S)-2-((7-amino-2-(furan-2-yl)-[1,2,4]triazolo[1,5-a][1,3,5]triazin-5-yl)amino)-2-(tetrahydro-2H-pyran-4-yl)-1-(4-(thiazol-2-yl)piperazin-1-yl)ethan-1-one] showed a pIC50 of 8.05.

The compound `Nc1nc(N[C@H](C(=O)N2CCN(CC(F)(F)F)CC2)C2CCCCC2)nc2nc(-c3nccs3)nn12` [Example 250, (S)-2-((7-amino-2-(thiazol-2-yl)-[1,2,4]triazolo[1,5-a][1,3,5]triazin-5-yl)amino)-2-cyclohexyl-1-(4-(2,2,2-trifluoroethyl)piperazin-1-yl)ethan-1-one] showed a pIC50 of 8.05.

`C[C@H](Nc1nc(N)n2nc(-c3ccco3)nc2n1)C(=O)N1CCN(c2nccs2)CC1` [Example 251, (S)-2-((7-amino-2-(furan-2-yl)-[1,2,4]triazolo[1,5-a][1,3,5]triazin-5-yl)amino)-1-(4-(thiazol-2-yl)piperazin-1-yl)propan-1-one] gave a pIC50 of 7.89.

As for `Nc1nc(N2CC[C@H]2C(=O)N2CCN(CC(F)F)CC2)nc2nc(-c3ccco3)nn12` [Example 252, (S)-(1-(7-amino-2-(furan-2-yl)-[1,2,4]triazolo[1,5-a][1,3,5]triazin-5-yl)azetidin-2-yl)(4-(2,2-difluoroethyl)piperazin-1-yl)methanone], the pIC50 was 8.22.

The compound `CC(F)(F)CN1CCN(C(=O)[C@@H]2CCN2c2nc(N)n3nc(-c4ccco4)nc3n2)CC1` [Example 253, (S)-(1-(7-amino-2-(furan-2-yl)-[1,2,4]triazolo[1,5-a][1,3,5]triazin-5-yl)azetidin-2-yl)(4-(2,2-difluoropropyl)piperazin-1-yl)methanone] gave a pIC50 of 8.15. This pIC50 and that of the compound before are within 0.2 log units of each other.

Take `CCC(F)(F)CN1CCN(C(=O)[C@@H]2CCN2c2nc(N)n3nc(-c4ccco4)nc3n2)CC1` [Example 254, (S)-(1-(7-amino-2-(furan-2-yl)-[1,2,4]triazolo[1,5-a][1,3,5]triazin-5-yl)azetidin-2-yl)(4-(2,2-difluorobutyl)piperazin-1-yl)methanone]: the negative logarithm of the IC50 (pIC50) is 7.92. This pIC50 lies 0.23 log units lower than the previous one.

In turn, `Nc1nc(N2CC[C@H]2C(=O)N2CCN(CC(F)(F)C(F)F)CC2)nc2nc(-c3ccco3)nn12` [Example 255, (S)-(1-(7-amino-2-(furan-2-yl)-[1,2,4]triazolo[1,5-a][1,3,5]triazin-5-yl)azetidin-2-yl)(4-(2,2,3,3-tetrafluoropropyl)piperazin-1-yl)methanone] showed a pIC50 of 8.05. This pIC50 and that of the compound before are within 0.2 log units of each other.

The compound `Nc1nc(N2CC[C@H]2C(=O)N2CCN(CC(F)(F)C(F)(F)F)CC2)nc2nc(-c3ccco3)nn12` [Example 256, (S)-(1-(7-amino-2-(furan-2-yl)-[1,2,4]triazolo[1,5-a][1,3,5]triazin-5-yl)azetidin-2-yl)(4-(2,2,3,3,3-pentafluoropropyl)piperazin-1-yl)methanone] gave a pIC50 of 9.00.

Compound `Nc1nc(N2CC[C@H]2C(=O)N2CCN(CC(F)(F)C(F)(F)C(F)(F)F)CC2)nc2nc(-c3ccco3)nn12` [Example 257, (S)-(1-(7-amino-2-(furan-2-yl)-[1,2,4]triazolo[1,5-a][1,3,5]triazin-5-yl)azetidin-2-yl)(4-(2,2,3,3,4,4,4-heptafluorobutyl)piperazin-1-yl)methanone] had a pIC50 of 9.10. The pIC50 values of the last two compounds are within 0.2 log units of each other.

`Nc1nc(N2CCC[C@H]2C(=O)N2CCN(CC(F)F)CC2)nc2sc(-c3ccco3)nc12` [Example 258, (S)-(1-(7-amino-2-(furan-2-yl)thiazolo[5,4-d]pyrimidin-5-yl)pyrrolidin-2-yl)(4-(2,2-difluoroethyl)piperazin-1-yl)methanone] had a pIC50 of 8.10.

As to `CC(F)(F)CN1CCN(C(=O)[C@@H]2CCCN2c2nc(N)c3nc(-c4ccco4)sc3n2)CC1` [Example 259, (S)-(1-(7-amino-2-(furan-2-yl)thiazolo[5,4-d]pyrimidin-5-yl)pyrrolidin-2-yl)(4-(2,2-difluoropropyl)piperazin-1-yl)methanone], the pIC50 is 8.52.

The compound `Nc1nc(N2CCC[C@H]2C(=O)N2CCN(CC(F)(F)C(F)F)CC2)nc2sc(-c3ccco3)nc12` [Example 260, (S)-(1-(7-amino-2-(furan-2-yl)thiazolo[5,4-d]pyrimidin-5-yl)pyrrolidin-2-yl)(4-(2,2,3,3-tetrafluoropropyl)piperazin-1-yl)methanone] had a pIC50 of 9.05.

`Nc1nc(N2CCC[C@H]2C(=O)N2CCN(CC(F)(F)C(F)(F)F)CC2)nc2sc(-c3ccco3)nc12` [Example 261, (S)-(1-(7-amino-2-(furan-2-yl)thiazolo[5,4-d]pyrimidin-5-yl)pyrrolidin-2-yl)(4-(2,2,3,3,3-pentafluoropropyl)piperazin-1-yl)methanone] had a pIC50 of 9.05.

Take `CC(C)(O)CC(=O)N1CCN(C(=O)[C@@H]2CCCN2c2nc(N)c3nc(-c4ccco4)sc3n2)CC1` [Example 262, 1-(4-((7-amino-2-(furan-2-yl)thiazolo[5,4-d]pyrimidin-5-yl)-L-prolyl)piperazin-1-yl)-3-hydroxy-3-methylbutan-1-one]: the pIC50 is 8.30.

Consider `CC(C)(O)CC(=O)N1CCN(C(=O)[C@@H]2CCCN2c2nc(N)c3nc(-c4ccco4)oc3n2)CC1` [Example 263, 1-(4-((7-amino-2-(furan-2-yl)oxazolo[5,4-d]pyrimidin-5-yl)-L-prolyl)piperazin-1-yl)-3-hydroxy-3-methylbutan-1-one], for which the pIC50 is 7.60.

In turn, `Nc1nc(N2CC[C@H]2C(=O)N2CCN(CCCC(F)(F)F)CC2)nc2nc(-c3ccco3)nn12` [Example 264, (S)-(1-(7-amino-2-(furan-2-yl)-[1,2,4]triazolo[1,5-a][1,3,5]triazin-5-yl)azetidin-2-yl)(4-(4,4,4-trifluorobutyl)piperazin-1-yl)methanone] gave a pIC50 of 8.00. Compared with the last compound, the pIC50 is 0.40 log units higher.

For `CCCCN1CCC(C2CCN(C(=O)[C@@H]3CCCN3c3nc(N)n4nc(-c5ccco5)nc4n3)CC2)CC1` [Example 265, (S)-(1-(7-amino-2-(furan-2-yl)-[1,2,4]triazolo[1,5-a][1,3,5]triazin-5-yl)pyrrolidin-2-yl)(1′-butyl-[4,4′-bipiperidin]-1-yl)methanone], the pIC50 is 7.36.

`COCCN1CCC(C2CCN(C(=O)[C@@H]3CCCN3c3nc(N)n4nc(-c5ccco5)nc4n3)CC2)CC1` [Example 266, (S)-(1-(7-amino-2-(furan-2-yl)-[1,2,4]triazolo[1,5-a][1,3,5]triazin-5-yl)pyrrolidin-2-yl)(1′-(2-methoxyethyl)-[4,4′-bipiperidin]-1-yl) methanone] gave a pIC50 of 7.82.

The compound `CC(C)(O)C(=O)N1CCN(C(=O)[C@@H]2CCN2c2nc(N)n3nc(-c4ccco4)nc3n2)CC1` [Example 267, (S)-1-(4-(1-(7-amino-2-(furan-2-yl)-[1,2,4]triazolo[1,5-a][1,3,5]triazin-5-yl)azetidine-2-carbonyl)piperazin-1-yl)-2-hydroxy-2-methylpropan-1-one] gave a pIC50 of 7.97.

The compound `Nc1nc(N2CCC[C@H]2C(=O)N2CCN(CC(F)F)CC2)nc2oc(-c3ccco3)nc12` [Example 269, (S)-(1-(7-amino-2-(furan-2-yl)oxazolo[5,4-d]pyrimidin-5-yl)pyrrolidin-2-yl)(4-(2,2-difluoroethyl)piperazin-1-yl)methanone] gave a pIC50 of 7.41.

Consider `CCC(F)(F)CN1CCN(C(=O)[C@@H]2CCCN2c2nc(N)c3nc(-c4ccco4)oc3n2)CC1` [Example 270, (S)-(1-(7-amino-2-(furan-2-yl)oxazolo[5,4-d]pyrimidin-5-yl)pyrrolidin-2-yl)(4-(2,2-difluorobutyl)piperazin-1-yl)methanone], for which the pIC50 was 8.05. This pIC50 lies 0.64 log units higher than the previous one.
